# Reference: patent publication US12600725B2 (Memorial Sloan-Kettering Cancer Center, priority 2013, dated 2026)
# “Also recorded” adds a separate entry of the source.
# Experiments:
# [1] = tested on: Hsp70 induction and AKT degradation (cytosolic Hsp90 hallmarks) in C2C12 cells; experiment: Western blot of Hsp70 induction and AKT degradation in C2C12 cells; type: cell-based, mouse; conditions: 24 hrs
# Procedure: Cell fractionation and immunoblotting. Cells were either treated with DMSO (vehicle) or indicated compounds for 24 hr and lysed in RIPA buffer (50 mM Tris-HCl, pH 7.4, 150 mM NaCl, 0.5% sodium deoxycholate and 0.5% NP40) supplemented with cocktail protease inhibitors (Roche) to produce whole cell lysates. Lysates for cytosol and membrane fractions were harvested using ProteoExtract Subcellular Proteome Extraction Kit (Calbiochem) following the manufacturer's instructions. Protein concentrations were determined using BCA kit (Pierce) according to the manufacturer's instructions. […] After washing off the excess antibodies, the membranes were incubated with the corresponding horseradish peroxidase (HRP) conjugated secondary antibody. Blots were visualized by autoradiography using the Enhanced Chemiluminescence Detection System (GE Healthcare) according to manufacturer's instructions. For all gels 3-actin was used as a protein loading control.
# [2] = tested on: downstream EGFR signaling in MDA-MB-468 tumors; experiment: PD analysis of tumors (Western blot); type: in vivo, mouse; conditions: 75 mg/kg ip
# Procedure: For this purpose we used mice bearing MDA-MB-468 tumors (a triple-negative breast tumor with EGFR-overexpression). Because of the specific affinity of the provided Grp94 inhibitors for tumor Grp94, we performed PK/PD studies that are tailored for this purpose. In this PK/PD study we incorporated two time points, a 2 h and a 24 h time of sacrifice post-administration. The early time point is incorporated to test the biodistribution of the agent to the site of its action, the tumor; PU-WS13 was readily distributed to tumor mass with -850 μM noted in tumor at 2 h versus 100 μM in the plasma (FIG. 25A). […] The concentration of PU-WS13 in the tumor at 24 h post-administration of single dose of 75 mg/kg was 0.5 μM. […] We also analyzed the potential suppression by PU-WS13 of normal Grp94 functions. A “housekeeping” function for Grp94 was identified using a conditional knock-out mouse model; that study found a role for Grp94 in normal GI cells, i.e. regulation of the Wnt receptor LRP6 (Liu et al., Proc Natl Acad Sci USA. 2013 Apr. 23; 110(17):6877-82). […]
# The other half of tumor tissues were evaluated for changes in EGFR and other PD markers as established in our laboratory. […] After quantifying the protein concentrations by BCA, 25-100ug proteins were loaded into SDS-PAGE and subjected to immunoblotting.
# [3] = tested on: Hsp70 induction in HEK293 cells; experiment: Hsp70 induction in HA-TLR9 transfected HEK293 cells; type: cell-based, human; conditions: 24 h
# Procedure: Cell fractionation and immunoblotting. Cells were either treated with DMSO (vehicle) or indicated compounds for 24 hr and lysed in RIPA buffer (50 mM Tris-HCl, pH 7.4, 150 mM NaCl, 0.5% sodium deoxycholate and 0.5% NP40) supplemented with cocktail protease inhibitors (Roche) to produce whole cell lysates. Lysates for cytosol and membrane fractions were harvested using ProteoExtract Subcellular Proteome Extraction Kit (Calbiochem) following the manufacturer's instructions. Protein concentrations were determined using BCA kit (Pierce) according to the manufacturer's instructions. The protein lysates ([…]) were electrophoretically resolved by SDS-PAGE, transferred onto nitrocellulose membranes and probed with the indicated primary antibodies against: HER^2 (Zymed, 28004), Hsp70 (Stressgen, SPA-810), Grp94 (Stressgen, SPA-850), Hsp90α (Abcam, Ab2928), Hsp90β (StressMarq, SMC-107B), Grp78 (Cell Signaling, 3183), Raf-1 (Santa Cruz, sc-133), phospho-Raf-1 (Cell Signaling, 9421), MEK1/2 (Cell Signaling, 8727), phospho-MEK1/2 (Cell Signaling, 9154), ERK1/2 (Cell Signaling, 4695), phospho-ERK1/2 (Cell Signaling, 4370), AKT (Cell Signaling, 9272), GM130 (Cell Signaling, 2296), Flotillin 2 (Cell Signaling, 3436), Histone H4 (Cell Signaling, 2592), Histone H1 (Santa Cruz, sc-8030), Caspase 3 (Cell Signaling, 9665), cleaved PARP (Promega, G7341), a-tubulin (Sigma, T5168) and 3-actin (Sigma, A1978). After washing off the excess antibodies, the membranes were incubated with the corresponding horseradish peroxidase (HRP) conjugated secondary antibody. Blots were visualized by autoradiography using the Enhanced Chemiluminescence Detection System (GE Healthcare) according to manufacturer's instructions. […]
# TLR^9-trafficking assay (Yang, Y. et al. Heat shock protein gp96 is a master chaperone for toll-like receptors and is important in the innate function of macrophages. Immunity 26, 215-26 (2007)). […] Fluorescence intensity was quantified using MetaMorph Microscopy Automation and Image Analysis Software (Molecular Devices Inc.) and normalized to the cell number.
smiles,measurement,setting,value
CC(C)NCCCn1c(Sc2cc(Cl)cc(Cl)c2)nc2c(N)ncnc21 [PU-WS13],AKT degradation,[1],lack of Hsp70 induction and AKT degradation; also recorded: has no effect
same,Hsp70 induction,[1],lack of Hsp70 induction; also recorded: has no effect
same,PD effect in tumor (p-AKT and p-ERK inhibition),[2],partial suppression of downstream EGFR signaling
same,Hsp70 induction,[3],fails to induce Hsp70
